Test results taken from PubChem BioAssay (NCI).
“And” between values parts separate entries of the source, which are not always exact repeats. Identical values can stand only once.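 Cultured in 96-well plates, cells were exposed to test compound for 48 hours across five concentrations. GI50: concentration for 50% inhibition of growth. TGI is the concentration that stops growth completely.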

Tests used:
Test in all cases: NCI anticancer screen, dose series, 48 h
HCT-15 colon = test system: HCT-15 colon
SF-268 CNS = test system: SF-268 CNS
RXF 393 renal = test system: RXF 393 renal
OVCAR-3 ovarian = test system: OVCAR-3 ovarian
SW-620 colon = test system: SW-620 colon
HCC-2998 colon = test system: HCC-2998 colon
UO-31 renal = test system: UO-31 renal
OVCAR-4 ovarian = test system: OVCAR-4 ovarian
SN12C renal = test system: SN12C renal
NCI-H23 lung = test system: NCI-H23 lung

## C=C1C(=O)O[C@H]2[C@H]1CC/C(COC(=O)c1cc3cc(F)ccc3[nH]1)=C\CC[C@@]1(C)O[C@@H]21
HCT-15 colon
  GI50: 1.15 µM
  TGI: 3.34 µM
SF-268 CNS
  GI50: 1.62 µM
  TGI: 3.3 µM
RXF 393 renal
  GI50: 1.47 µM
  TGI: 2.87 µM
OVCAR-3 ovarian
  GI50: 1.2 µM
  TGI: 2.66 µM
SW-620 colon
  GI50: 1.43 µM
  TGI: 4.09 µM
HCC-2998 colon
  GI50: 2.02 µM
  TGI: 3.74 µM
UO-31 renal
  GI50: 1.2 µM
  TGI: 2.54 µM
OVCAR-4 ovarian
  GI50: 1.67 µM
  TGI: 3.92 µM
SN12C renal
  GI50: 1.85 µM
  TGI: 3.92 µM
NCI-H23 lung
  GI50: 1.9 µM
  TGI: 4.26 µM

## ClCc1cccc(Cn2cnc3c(Cl)ncnc32)c1
HCT-15 colon
  GI50: 2.17 µM
  TGI: 4.64 µM
SF-268 CNS
  GI50: 3.53 µM
  TGI: 15.3 µM
RXF 393 renal
  GI50: 2.28 µM
  TGI: 24 µM
OVCAR-3 ovarian
  GI50: 1.63 µM
  TGI: 3.05 µM
SW-620 colon
  GI50: 2.12 µM
  TGI: 4.33 µM
HCC-2998 colon
  GI50: 0.407 µM
  TGI: 1.75 µM
UO-31 renal
  GI50: 14.4 µM
  TGI: 35.9 µM
OVCAR-4 ovarian
  GI50: 2.35 µM
  TGI: 5.69 µM
SN12C renal
  GI50: 2.32 µM
  TGI: 5.13 µM
NCI-H23 lung
  GI50: 1.92 µM
  TGI: 4.07 µM

## CC(=O)Nc1ccc2c(c1)c(C1=C(c3cn(C)c4ccccc34)C(=O)NC1=O)cn2C
HCT-15 colon
  GI50: 1.02 µM
  TGI: > 25 µM
SF-268 CNS
  GI50: 1.41 µM
  TGI: > 25 µM
RXF 393 renal
  GI50: 0.608 µM
  TGI: 2.68 µM
OVCAR-3 ovarian
  GI50: 0.723 µM
  TGI: 2.16 µM
SW-620 colon
  GI50: 1.02 µM
  TGI: > 25 µM
HCC-2998 colon
  GI50: > 11.2 µM
  TGI: > 25 µM
UO-31 renal
  GI50: 1.16 µM
  TGI: > 25 µM
OVCAR-4 ovarian
  GI50: 2.54 µM
  TGI: > 17.6 µM
SN12C renal
  GI50: 1.66 µM
  TGI: > 25 µM
NCI-H23 lung
  GI50: 5.45 µM
  TGI: > 25 µM

## CNc1ccc2nc3ccc(=[N+](C)C)cc-3sc2c1
HCT-15 colon
  GI50: 1.57 µM and 0.424 µM
  TGI: 18.2 µM and 16.5 µM
SF-268 CNS
  GI50: 2.28 µM and 0.465 µM
  TGI: 18.7 µM and 8.7 µM
RXF 393 renal
  GI50: 3.53 µM and 5.32 µM
  TGI: 11.4 µM and 14.3 µM
OVCAR-3 ovarian
  GI50: 0.408 µM and 0.205 µM
SW-620 colon
  GI50: 1.63 µM and 0.424 µM
  TGI: 12.5 µM and 10.5 µM
HCC-2998 colon
  GI50: 2.84 µM and 1.12 µM
  TGI: 15.9 µM and 18.6 µM
UO-31 renal
  GI50: 2.74 µM and 2.2 µM
  TGI: 19 µM and 16.3 µM
OVCAR-4 ovarian
  GI50: 0.398 µM and 0.299 µM
  TGI: 1.74 µM and 1.9 µM
SN12C renal
  GI50: 1.08 µM and 0.466 µM
  TGI: 3.31 µM and 4.16 µM
NCI-H23 lung
  GI50: 0.817 µM and 0.323 µM
  TGI: 7.91 µM and 2.75 µM

## N=C1C(c2nc(-c3ccc(Br)cc3)cs2)=C(O)CN1Cc1cccnc1
HCT-15 colon
  GI50: 24.4 µM
  TGI: > 100 µM
SF-268 CNS
  GI50: 31.6 µM
  TGI: > 100 µM
RXF 393 renal
  GI50: 7.98 µM
  TGI: 31.3 µM
OVCAR-3 ovarian
  GI50: 14 µM
  TGI: 42 µM
SW-620 colon
  GI50: 4.75 µM
  TGI: 26.7 µM
HCC-2998 colon
  GI50: 24.3 µM
  TGI: 80.4 µM
UO-31 renal
  GI50: 19.7 µM
  TGI: > 100 µM
OVCAR-4 ovarian
  GI50: 25.1 µM
  TGI: > 100 µM
SN12C renal
  GI50: 26.8 µM
  TGI: > 100 µM
NCI-H23 lung
  GI50: 22.5 µM
  TGI: > 100 µM

## COc1nc(N(C)O)nc(N(C)O)n1
HCT-15 colon
  GI50: 0.519 µM
  TGI: > 100 µM
SF-268 CNS
  GI50: 1.16 µM
  TGI: > 100 µM
RXF 393 renal
  GI50: 1.95 µM
  TGI: > 100 µM
OVCAR-3 ovarian
  GI50: 0.794 µM
  TGI: > 100 µM
SW-620 colon
  GI50: 2.57 µM
  TGI: > 100 µM
HCC-2998 colon
  GI50: 2.25 µM
  TGI: > 100 µM
UO-31 renal
  GI50: 1.13 µM
  TGI: > 100 µM
OVCAR-4 ovarian
  GI50: 2.33 µM
  TGI: > 100 µM
SN12C renal
  GI50: 2.25 µM
  TGI: > 100 µM
NCI-H23 lung
  GI50: 2.14 µM
  TGI: > 100 µM

## COc1cccc(C2CC(C)(N3CCCC3)Oc3cc4c(cc32)OCO4)c1O (stereo unspecified)
HCT-15 colon
  TGI: 70 µM
SF-268 CNS
  TGI: > 92.1 µM
RXF 393 renal
  TGI: > 80.6 µM
OVCAR-3 ovarian
  TGI: 46.1 µM
SW-620 colon
  TGI: > 100 µM
HCC-2998 colon
  TGI: 48.2 µM
UO-31 renal
  TGI: > 96.3 µM
OVCAR-4 ovarian
  TGI: > 100 µM
SN12C renal
  TGI: 84.9 µM
NCI-H23 lung
  TGI: 71 µM

## C=C1CC2(OC1=O)C(=O)N(CCCCCCCN1C(=O)C3(CC(=C)C(=O)O3)c3ccccc31)c1ccccc12 (stereo unspecified)
HCT-15 colon
  GI50: 1.3 µM
  TGI: 4.61 µM
SF-268 CNS
  GI50: 3.97 µM
  TGI: 12 µM
RXF 393 renal
  GI50: 0.86 µM
  TGI: 2.06 µM
OVCAR-3 ovarian
  GI50: 1.27 µM
  TGI: 4.07 µM
SW-620 colon
  GI50: 0.938 µM
  TGI: 2.21 µM
HCC-2998 colon
  GI50: 6.44 µM
  TGI: 13.7 µM
UO-31 renal
  GI50: 3.44 µM
  TGI: 9.95 µM
OVCAR-4 ovarian
  GI50: 2.01 µM
  TGI: 7.6 µM
SN12C renal
  GI50: 1.08 µM
  TGI: 2.72 µM
NCI-H23 lung
  GI50: 3.71 µM
  TGI: 11.6 µM

## CCN(CC)CCOc1nc2ccc(OC)cc2c2c1-c1ccc(OC)cc1C2=O
HCT-15 colon
  GI50: 0.584 µM
  TGI: 2.27 µM
SF-268 CNS
  GI50: 0.595 µM
  TGI: 2.02 µM
RXF 393 renal
  GI50: 1.21 µM
  TGI: 2.55 µM
OVCAR-3 ovarian
  GI50: 0.872 µM
  TGI: 2.15 µM
SW-620 colon
  GI50: 0.253 µM
  TGI: 1.61 µM
HCC-2998 colon
  GI50: 1.31 µM
  TGI: 6.68 µM
UO-31 renal
  GI50: 0.361 µM
  TGI: 1.85 µM
OVCAR-4 ovarian
  GI50: 1.02 µM
  TGI: 3.17 µM
SN12C renal
  GI50: 0.531 µM
  TGI: 2.06 µM
NCI-H23 lung
  GI50: 1.25 µM
  TGI: 3.23 µM

## C[C@@H]1C[C@@H](O)[C@]2(O)O[C@@H]3C[C@@]4(C=O)[C@@H](CC[C@@H]5[C@@H]4CC[C@]4(C)[C@@H](C6=CC(=O)OC6)CC[C@]54O)C[C@H]3O[C@@H]2O1
HCT-15 colon
  GI50: 0.06 µM
  TGI: 0.0605 µM and 0.25 µM
SF-268 CNS
  GI50: 0.00621 µM and 0.005 µM
  TGI: 0.0151 µM and 0.0247 µM and 0.0474 µM
RXF 393 renal
  TGI: 0.0599 µM
OVCAR-3 ovarian
  GI50: 0.0241 µM
SW-620 colon
  GI50: 0.0525 µM and 0.0111 µM
  TGI: 0.0591 µM and 0.221 µM and 0.164 µM
HCC-2998 colon
  GI50: 0.0273 µM
  TGI: 0.582 µM and 0.134 µM
UO-31 renal
  GI50: 0.0143 µM
  TGI: 0.0559 µM and 0.0454 µM
OVCAR-4 ovarian
  GI50: 0.0056 µM
  TGI: 0.0531 µM and 0.0128 µM
SN12C renal
  GI50: 0.005 µM
  TGI: 0.0897 µM and 0.144 µM and 0.0759 µM
NCI-H23 lung
  GI50: 0.0282 µM and 0.005 µM

## O=c1c2ccccc2[nH]c(=S)n1-c1ccc(Br)cc1
HCT-15 colon
  TGI: > 100 µM
SF-268 CNS
  TGI: > 100 µM
RXF 393 renal
  TGI: > 100 µM
OVCAR-3 ovarian
  TGI: > 100 µM
SW-620 colon
  TGI: > 100 µM
HCC-2998 colon
  TGI: > 100 µM
UO-31 renal
  TGI: > 100 µM
OVCAR-4 ovarian
  TGI: > 100 µM
SN12C renal
  TGI: > 100 µM
NCI-H23 lung
  TGI: > 100 µM

## CC(=O)n1c(COS(C)(=O)=O)nc2ccccc21
HCT-15 colon
  TGI: > 100 µM
SF-268 CNS
  TGI: > 100 µM
RXF 393 renal
  TGI: > 100 µM
OVCAR-3 ovarian
  TGI: > 100 µM
SW-620 colon
  TGI: > 100 µM
HCC-2998 colon
  TGI: > 100 µM
UO-31 renal
  TGI: > 100 µM
OVCAR-4 ovarian
  TGI: > 100 µM
SN12C renal
  TGI: > 100 µM
NCI-H23 lung
  TGI: > 100 µM

## CC1=C(C)C(=O)c2c(cc3ccc4ccccc4n23)C1=O
HCT-15 colon
  TGI: > 100 µM
SF-268 CNS
  TGI: > 100 µM
RXF 393 renal
  TGI: > 100 µM
OVCAR-3 ovarian
  TGI: > 100 µM
SW-620 colon
  TGI: > 100 µM
HCC-2998 colon
  TGI: > 100 µM
UO-31 renal
  TGI: > 100 µM
OVCAR-4 ovarian
  TGI: > 100 µM
SN12C renal
  TGI: > 100 µM
NCI-H23 lung
  TGI: > 100 µM

## COc1ccc2c(c1)/C(=C\c1c(C)nc3sc(C)cn13)C(=O)N2C
HCT-15 colon
  GI50: 2.73 µM
  TGI: 40.3 µM
SF-268 CNS
  GI50: 4.62 µM
  TGI: 39 µM
RXF 393 renal
  GI50: 4.84 µM
  TGI: 48.3 µM
OVCAR-3 ovarian
  GI50: 1.43 µM
  TGI: 3.99 µM
SW-620 colon
  GI50: 3.25 µM
  TGI: 18 µM
HCC-2998 colon
  GI50: 1.37 µM
  TGI: 4.68 µM
UO-31 renal
  GI50: 10 µM
  TGI: > 100 µM
OVCAR-4 ovarian
  GI50: 26.4 µM
  TGI: > 100 µM
SN12C renal
  GI50: 4.7 µM
  TGI: 32.3 µM
NCI-H23 lung
  GI50: 8.04 µM
  TGI: 35.3 µM
